Key:
[1] = biological target: T1, microsome prostaglandin-biosynthesis enzyme (Bos taurus, UniProt O62664); assay: Inhibition of PG-biosynthesis enzyme activity, bovine seminal vesicle microsome test; type: biochemical; conditions: for IC50: bovine seminal vesicle microsome 1mg/ml, 14C-arachidonic acid 10 μM, pH 7.6, 30° C., 10 minutes, prostaglandin E2 measured, read-out: Inhibition of PG-biosynthesis enzyme activity, Bovine seminal vesicle microsome I50
T1 construct: microsome prostaglandin-biosynthesis enzyme (1mg/ml) fractionated from bovine seminal vesicles; from tissue; host or cells: bovine seminal vesicles (microsomes)
T1 sequence (O62664 25-600): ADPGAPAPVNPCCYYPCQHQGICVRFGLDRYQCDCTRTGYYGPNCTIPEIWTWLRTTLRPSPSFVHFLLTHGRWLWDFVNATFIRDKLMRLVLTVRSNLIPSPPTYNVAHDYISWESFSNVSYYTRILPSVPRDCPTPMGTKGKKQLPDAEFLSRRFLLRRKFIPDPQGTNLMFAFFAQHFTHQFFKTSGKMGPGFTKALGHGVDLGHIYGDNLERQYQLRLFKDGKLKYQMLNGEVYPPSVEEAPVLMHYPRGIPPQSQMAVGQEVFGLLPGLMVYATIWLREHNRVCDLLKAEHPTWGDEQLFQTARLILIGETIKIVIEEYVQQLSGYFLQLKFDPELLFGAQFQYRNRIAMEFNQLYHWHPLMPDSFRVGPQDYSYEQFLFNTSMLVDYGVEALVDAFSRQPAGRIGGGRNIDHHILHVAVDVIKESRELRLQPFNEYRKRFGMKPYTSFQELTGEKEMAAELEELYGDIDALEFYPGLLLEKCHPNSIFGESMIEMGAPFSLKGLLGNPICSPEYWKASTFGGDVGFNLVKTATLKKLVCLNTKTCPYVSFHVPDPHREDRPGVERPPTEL
Experimental: Microsome tests were conducted according to the methods of E Takeguchi, E Kohno, C J Sih: Biochemistry 10, 2372 (1971), "Preparation of bovine seminal vesicle" and of R J Flower, H S Cheung, D W Cushman: Prostaglandins 4, 325 (1973), "Pharmacological action system."
The compounds under test were added to a system comprising microsome prostaglandin-biosynthesis enzyme (1mg/ml) fractionated from bovine seminal vesicles, glutathione (2 mM), epinephrine (1 mM) and trisaminomethane-hydrochloric acid buffer solution pH 7.6 (0.1 M). The mixture was left to stand at 30° C. for 5 minutes and commercially available ^14 C-arachidonic acid (10 μM, 50-60 nCi) was added. The resultant solution was maintained at 30° C. for 10 minutes and reaction then stopped by addition of 0.1 N hydrochloric acid. After extraction of the reaction mixture, the extract was separated by thin layer chromatography on silica gel to give the prostaglandin which was produced. The main product, prostaglandin E2, was measured using a liquid scintilation counter in accordance with the method of L Levine et al: Journal of Biological Chemistry (246, 6782 (1971). The inhibitory activities were assayed by the radioactivity ratio of the sample to a blank.

[2] = system: prostaglandin-biosynthesis in 3T6 cells; assay: Inhibition of prostaglandin-biosynthesis in cultured cells (3T6 cells from mouse fibroblasts); type: cell-based; conditions: for IC50: Mus musculus, Fibroblast, 3T6 cells, 2 hours contact, then arachidonic acid 5 μg/ml, 1 hour, prostaglandin E2 by radioimmunoassay, read-out: Inhibition of PG-biosynthesis enzyme activity, Culture cells I50
Experimental: 3T6 cells from mouse fibroblasts were used as the cultured cells.
About six hundred thousand 3T6 cells were cultured in a plastics Petri dish (35 mm inner diameter) at 37° C. for 48 hours using a minimum-requirement medium, Darbecco (Trade Mark). After culturing, the cells were separated, washed, and then contacted with the same medium but containing the compound under test. After contacting for 2 hours, the medium was separated off and the cells washed. The medium containing 5 μg/ml of arachidonic acid and the test compound were added. Culturing was allowed to continue for 1 hour, and then the concentration of the prostaglandin E2 in the medium was assayed by radioimmunoassay.

C[C@H](C(=O)O)c1ccc(CC2CCCC2O)cc1 (stereo partly drawn) [I, (2S)-2-[4-(2-hydroxycyclopentan-1-ylmethyl)phenyl]propionic acid]
IC50 [1]: 72 µM

C[C@H](C(=O)O)c1ccc(CC2CCCC2O)cc1 (stereo partly shown) [II + III]
IC50 [1]: 13 µM

C[C@H](C(=O)O)c1ccc(C[C@H]2CCC[C@@H]2O)cc1 [II, (2S)-2-{4-[(1R,2S)-2-hydroxycyclopentan-1-ylmethyl]phenyl}propionic acid]
IC50 [2]: 250 nM | activity compared to indomethacin (in words) ([2]; cultured cells test, called in vivo): better activity in the compound (II) compared to indomethacin | inhibition of prostaglandin-biosynthesis enzyme activity (in words) [1]: more active than the compound (I) | IC50 [1]: 9 µM

COc1ccc2c(c1)c(CC(=O)O)c(C)n2C(=O)c1ccc(Cl)cc1 [IM, indomethacin, reference compound]
IC50 [2]: 340 nM
